Values after ≈ are worked out from the molar mass of the structure shown. Where a SMILES comes first, the peptide text is derived from it. [ ]: non-standard residue; d: D form. The star is where a group is joined. Palmitoyl = CCCCCCCCCCCCCCCC(=O)*; Nlys = NCCCCNCC(=O)O
Key:
[1] = tested on: A. baumannii CAN-ICU 63169; assay type: cell-based, Acinetobacter baumannii; details: CAN-ICU 63169, 24 h
Method in brief: (§1)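 Read-out is the MIC after 24 hr incubation at 37°C in ambient air, determined by CLSI macrobroth dilution in cation-adjusted Mueller-Hinton broth with an inoculum near 5 × 10^5 CFU/mL; tested once.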

[2] = tested on: S. maltophilia CAN-ICU 62584; assay type: cell-based, Stenotrophomonas maltophilia; details: CAN-ICU 62584, 24 h
Method in brief: as §1

MSSE 81388 CANWARD 2008 = assay type: cell-based, methicillin-susceptible S. epidermidis; details: 24 h
Method in brief: as §1

[3] = tested on: all three strains of E. coli; assay type: cell-based, Escherichia coli; details: 24 h
Method in brief: (§2)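 CLSI macrobroth dilution with doubling dilutions in cation-adjusted Mueller-Hinton broth in glass tubes, inoculum about 5 × 10^5 CFU/mL. Incubation 24 hr at 37°C in ambient air before MIC reading. Single determinations, no replication.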

E.coli CAN-ICU 63074 = assay type: cell-based, Escherichia coli; details: CAN-ICU 63074, 24 h
Method in brief: as §1

E.coli CAN-ICU 61714 = assay type: cell-based, Escherichia coli; details: CAN-ICU 61714, 24 h
Method in brief: as §1

E.coli ATCC 25922 = assay type: cell-based, Escherichia coli; details: ATCC 25922, 24 h
Method in brief: as §1

E. faecium ATCC 27270 = assay type: cell-based; details: ATCC 27270, 24 h
Method in brief: as §1

K.pneumoniae ATCC 13883 = assay type: cell-based, Klebsiella pneumoniae; details: ATCC 13883, 24 h
Method in brief: as §1

P.aeruginosa ATCC 27853 = assay type: cell-based, Pseudomonas aeruginosa; details: ATCC 27853, 24 h
Method in brief: as §1

[4] = tested on: P.aeruginosa CAN-ICU 62308; assay type: cell-based, Pseudomonas aeruginosa; details: CAN-ICU 62308, 24 h
Method in brief: as §1

MRSE CAN-ICU 61589 = assay type: cell-based, methicillin-resistant S. epidermidis; details: CAN-ICU 61589, 24 h
Method in brief: as §1

ovine erythrocytes = assay: Haemolytic assay; assay type: cell-based, sheep; details: ovine erythrocytes in Tris buffered saline, 30 minutes, absorbance of supernatant at 540 nm
Method in brief: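 Washed sheep erythrocytes in Tris-buffered saline exposed to compound (50 μg/mL–1 mg/mL; final 4.08 x 10^8 cells/mL) for 30 min. After centrifugation, supernatant absorbance at 540 nm gave % haemolysis; 0.5% ammonium chloride as positive control.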

S.aureus ATCC 29213 = assay type: cell-based, Staphylococcus aureus; details: ATCC 29213, 24 h
Method in brief: as §1

MRSA ATCC 33592 = assay type: cell-based, methicillin-resistant S. aureus; details: ATCC 33592, 24 h
Method in brief: as §1

S.pneumoniae ATCC 49619 = assay type: cell-based, Streptococcus pneumoniae; details: ATCC 49619, 24 h
Method in brief: as §1

E. faecalis ATCC 29212 = assay type: cell-based, Enterococcus faecalis; details: ATCC 29212, 24 h
Method in brief: as §1

S. epidermidis = assay type: cell-based; details: 24 h
Method in brief: as §2

SMILES	MIC A. baumannii [1] [µg/mL]	MIC A. baumannii in the presence of 4% bovine serum albumin [1] [µg/mL]	MIC S. maltophilia [2] [µg/mL]	MIC S. maltophilia in the presence of 4% bovine serum albumin [2] [µg/mL]	MIC MSSE (MSSE 81388 CANWARD 2008) [µg/mL]	MIC MSSE in the presence of 4% bovine serum albumin (MSSE 81388 CANWARD 2008) [µg/mL]	MIC E.coli (E.coli CAN-ICU 63074) [µg/mL]	MIC E.coli in the presence of 4% bovine serum albumin (E.coli CAN-ICU 63074) [µg/mL]	MIC E.coli (E.coli CAN-ICU 61714) [µg/mL]	MIC E.coli in the presence of 4% bovine serum albumin (E.coli CAN-ICU 61714) [µg/mL]	MIC E.coli (E.coli ATCC 25922) [µg/mL]	MIC E.coli in the presence of 4% bovine serum albumin (E.coli ATCC 25922) [µg/mL]	MIC E. faecium (E. faecium ATCC 27270) [µg/mL]	MIC E. faecium in the presence of 4% bovine serum albumin (E. faecium ATCC 27270) [µg/mL]	MIC K.pneumoniae (K.pneumoniae ATCC 13883) [µg/mL]	MIC K.pneumoniae in the presence of 4% bovine serum albumin (K.pneumoniae ATCC 13883) [µg/mL]	MIC P.aeruginosa (P.aeruginosa ATCC 27853) [µg/mL]	MIC P.aeruginosa in the presence of 4% bovine serum albumin (P.aeruginosa ATCC 27853) [µg/mL]	MIC P.aeruginosa [4] [µg/mL]	MIC P.aeruginosa in the presence of 4% bovine serum albumin [4] [µg/mL]	also measured
CCCCCCCCCCCCCCCC(=O)N(CCCCN)CC(=O)NCC(=O)N(CCCCN)CC(N)=O [C16-NlysGNlys] (Palmitoyl-[Nlys]-Gly-[Nlys]-NH2)	128 (≈ 225 µM)	>512	128 (≈ 225 µM)	>512	8 (≈ 14.1 µM)	512	16 (≈ 28.1 µM)	512	16 (≈ 28.1 µM)	512	16 (≈ 28.1 µM)	512	16 (≈ 28.1 µM)	512	64 (≈ 113 µM)	>512	64 (≈ 113 µM)	>512	128 (≈ 225 µM)	>512	MIC against all three strains of E. coli [3]: 16 µg/mL; MIC MRSE (MRSE CAN-ICU 61589): 16 µg/mL (≈ 28.1 µM); MIC MRSE in the presence of 4% bovine serum albumin (MRSE CAN-ICU 61589): 512 µg/mL; Percent haemolysis at 100µg/mL of compound (ovine erythrocytes): 56.03%; MIC S.aureus (S.aureus ATCC 29213): 8 µg/mL (≈ 14.1 µM); MIC S.aureus in the presence of 4% bovine serum albumin (S.aureus ATCC 29213): 512 µg/mL; MIC MRSA (MRSA ATCC 33592): 16 µg/mL (≈ 28.1 µM); MIC MRSA in the presence of 4% bovine serum albumin (MRSA ATCC 33592): 512 µg/mL; MIC S.pneumoniae (S.pneumoniae ATCC 49619): 128 µg/mL (≈ 225 µM); MIC S.pneumoniae in the presence of 4% bovine serum albumin (S.pneumoniae ATCC 49619): 512 µg/mL; MIC E. faecalis (E. faecalis ATCC 29212): 16 µg/mL (≈ 28.1 µM); MIC E. faecalis in the presence of 4% bovine serum albumin (E. faecalis ATCC 29212): 512 µg/mL
CCCCCCCCCCCCCCCCCCCC(=O)N(CCCCN)CC(=O)N(CCCCN)CC(=O)N(CCCCN)CC(N)=O [C20-NlysNlysNlys]	64 (≈ 91.9 µM)	512	64 (≈ 91.9 µM)	512	8 (≈ 11.5 µM)	128	32 (≈ 46 µM)	256	32 (≈ 46 µM)	256	32 (≈ 46 µM)	256	16 (≈ 23 µM)	256	64 (≈ 91.9 µM)	256	128 (≈ 184 µM)	512	64 (≈ 91.9 µM)	512	MIC against S. epidermidis with BSA (S. epidermidis): 128 µg/mL; MIC MRSE (MRSE CAN-ICU 61589): 8 µg/mL (≈ 11.5 µM); MIC MRSE in the presence of 4% bovine serum albumin (MRSE CAN-ICU 61589): 128 µg/mL; Percent haemolysis at 100µg/mL of compound (ovine erythrocytes): 68.29%; MIC S.aureus (S.aureus ATCC 29213): 16 µg/mL (≈ 23 µM); MIC S.aureus in the presence of 4% bovine serum albumin (S.aureus ATCC 29213): 128 µg/mL; MIC MRSA (MRSA ATCC 33592): 16 µg/mL (≈ 23 µM); MIC MRSA in the presence of 4% bovine serum albumin (MRSA ATCC 33592): 256 µg/mL; MIC S.pneumoniae (S.pneumoniae ATCC 49619): 64 µg/mL (≈ 91.9 µM); MIC S.pneumoniae in the presence of 4% bovine serum albumin (S.pneumoniae ATCC 49619): 512 µg/mL; MIC E. faecalis (E. faecalis ATCC 29212): 16 µg/mL (≈ 23 µM); MIC E. faecalis in the presence of 4% bovine serum albumin (E. faecalis ATCC 29212): 256 µg/mL
CCCCCCCCCCCCCCCC(=O)N(CCCCNC(=N)N)CC(=O)NCC(=O)N(CCCCNC(=N)N)CC(N)=O [C16-NhargGNharg]	128 (≈ 196 µM)	>512	64 (≈ 98 µM)	>512	8 (≈ 12.3 µM)	512	16 (≈ 24.5 µM)	512	16 (≈ 24.5 µM)	512	16 (≈ 24.5 µM)	512	16 (≈ 24.5 µM)	512	64 (≈ 98 µM)	512	64 (≈ 98 µM)	>512	64 (≈ 98 µM)	>512	MIC against all three strains of E. coli [3]: 16 µg/mL; MIC MRSE (MRSE CAN-ICU 61589): 16 µg/mL (≈ 24.5 µM); MIC MRSE in the presence of 4% bovine serum albumin (MRSE CAN-ICU 61589): 512 µg/mL; Percent haemolysis at 100µg/mL of compound (ovine erythrocytes): 61.06%; MIC S.aureus (S.aureus ATCC 29213): 8 µg/mL (≈ 12.3 µM); MIC S.aureus in the presence of 4% bovine serum albumin (S.aureus ATCC 29213): 512 µg/mL; MIC MRSA (MRSA ATCC 33592): 8 µg/mL (≈ 12.3 µM); MIC MRSA in the presence of 4% bovine serum albumin (MRSA ATCC 33592): 512 µg/mL; MIC S.pneumoniae (S.pneumoniae ATCC 49619): 128 µg/mL (≈ 196 µM); MIC S.pneumoniae in the presence of 4% bovine serum albumin (S.pneumoniae ATCC 49619): 512 µg/mL; MIC E. faecalis (E. faecalis ATCC 29212): 16 µg/mL (≈ 24.5 µM); MIC E. faecalis in the presence of 4% bovine serum albumin (E. faecalis ATCC 29212): 512 µg/mL

Source: publication PMC3402541, “Guanidylation and Tail Effects in Cationic Antimicrobial Lipopeptoids” (PLoS ONE, 2012)
